Measured values: PMC3543424, “Antitumor Activity of Antimicrobial Peptides Containing CisoDGRC in CD13 Negative Breast Cancer Cells” (PLoS ONE, 2013)
*1 amine or outer side, *2 acyl side, *3 side chain or, on linkers, in order; H or OH if unused. Where a SMILES comes first, the peptide text is derived from it. Bridges are numbered along the chain shown (N, C = ends). [ ]: non-standard residue; d: D form. βAsp = O=C(O)[C@H](CC(=O)[*:2])N[*:1]

Legend:
HUVEC = conditions: MTT, 24 h
HFF = conditions: MTT, 24 h
MCF-7 cells [1] = type: cell-based, human
Protocol: (§1) The MCF-7 and MDA-MB-231 cells were cultured in 96-well plates at a density of 5×10^4 cells/well. CDAK and CRLK were added to different wells, ranging from 10 µg/ml to 200 µg/ml, respectively. After 24 h, 48 h and 72 h, 3-[4,5-dimethylthiazol- 2-yl]-2,5-diphenyltetrazolium bromide (MTT; Sigma-Aldrich, St. Louis, MO, USA) was added to each well and incubated for 4 h. The MTT was dissolved in 200 µL of Dimethyl sulfoxide (DMSO). Absorbance was detected using a microplate reader at 490 nm. Wells without peptides were used to control cell viability, representing 100% cell survival. Wells without cells were used for the blank of the spectrophotometer.

MDA-MB-231 cells [2] = type: cell-based, human
Protocol: as §1

lung and liver = tested on: lung and liver; set-up: species or system BALB/cnu-nu athymic nude mice; conditions: mouse, in vivo, iv, 4 mg/kg
Excerpt: Terminal deoxynucleotidyl teansferase-mediated dUTP nick end-labeling (TUNEL) were examined in the lung and liver using TdT In Situ Apoptosis Detection Kit (Trevigen, Gaithersburg, Maryland, USA) following the manufacturer's protocols. Apoptosis cells were identified as having brown nuclei under a light microscope. The number of apoptosis cells was counted in five random fields (×400) in a blinded manner.

MCF-7 cells [3] = experiment: DNA ladder (DNA fragmentation) assay; type: cell-based, human; conditions: MCF-7, 24 h; CDAK 190 µg/ml, CRLK 200 µg/ml; 1% agarose gel
Protocol: (§2) For DNA fragmentation analysis, DAN of cells which were treated with CDAK (190 µg/ml and 212 µg/ml), CRLK (200 µg/ml) and control (PBS) for 24 h were extracted using a selective apoptotic DNA ladder extraction KIT (Biomed Company, Beijing, China) and were analyzed using 1% agarose gels. DNA was visualized with ethidium bromide staining.

MDA-MB-231 cells [4] = experiment: DNA ladder (DNA fragmentation) assay; type: cell-based, human; conditions: MDA-MB-231, 24 h; CDAK 212 µg/ml, CRLK 200 µg/ml; 1% agarose gel
Protocol: as §2

MCF-7 cells [5] = experiment: Cell cycle, BrdU/PI flow cytometry; type: cell-based, human; conditions: MCF-7, 24 h, CDAK 190 µg/ml, CRLK 200 µg/ml
Protocol: (§3) After being incubated with CDAK (190 µg/ml and 212 µg/ml), CRLK (200 µg/ml) and control (PBS) for 24 h, 20 µM BrdU (Sigma-Aldrich, St. Louis, MO, USA) was added to the media for 30 min. Cells were harvested and fixed in iced-cold 75% ethanol for 24 h. Then, the cells were treated with 4N HCL, neutralized by 0.1 M borax, and washed with PBS containing 0.05% bovine serum albumin (BSA). The cells were incubated sequentially with anti-BrdU antibody (santa cruz biotechnology, California, US) and FITC-conjugate anti-mouse secondary antibody in the presence of 0.5%BSA and 0.5%Tween-20. Cells were added PI (50 µg/ml) and RNase A (50 µg/ml) for 20 minutes and analyzed by flow cytometry. Select a forward scatter (FSC) versus side scatter (SSC) window defined single cells and exclude cell doublets.

MDA-MB-231 cells [6] = experiment: Cell cycle, BrdU/PI flow cytometry; type: cell-based, human; conditions: MDA-MB-231, 24 h, CDAK 212 µg/ml, CRLK 200 µg/ml
Protocol: as §3

MDA-MB-231 xenograft [7] = experiment: MDA-MB-231 xenograft growth in athymic nude mice; type: in vivo, BALB/cnu-nu athymic nude mice; conditions: 4 mg/kg intravenously, three times a week for three weeks, five mice per group
Protocol: The experiment was approved by the Animal Care and Use Committee of Xi'an Jiaotong University. MDA-MB-231 cells (2×10^6) were injected subcutaneously into the right flank of 6- to 9-week-old female BALB/cnu-nu athymic nude mice (Shanghai Silaike Laboratory Animal Co., Ltd, Shanghai, China) weighing 18 to 20 g. When the tumor reached 60 mm^3 in size, the mice were randomized into three groups: (1) CDAK (4 mg/kg); (2) CRLK (4 mg/kg); and (3) saline (control). They were then injected intravenously (50 µL/injection) three times a week for three weeks. Tumor volume was measured three times a week using calipers to calculate the tumor size using the following formula: length×width^2×0.5. All values are expressed as the mean ± SD.
Tumor-bearing athymic nude mice were sacrificed and the weights of the tumors were recorded. The tumor tissue, liver as well as lung tissues of mice were paraffin-embedded. The tumor paraffin sections were incubated for 10 minutes with 3% H2O2 deionized water to eliminate the endogenous peroxidase activity, washed in PBS three times for five minutes, 5% goat serum was added for 15 minutes, then incubated with mouse monoclonal CD105 antibody (Abcam, Cambridge, UK) at 4°C overnight and washed with PBS three times for five minutes. […]

MDA-MB-231 xenograft [8] = experiment: Tumor angiogenesis, anti-CD105 immunohistochemistry (microvessel density); type: in vivo, BALB/cnu-nu athymic nude mice; conditions: 4 mg/kg intravenously, tumor sections, P<0.05
Protocol: Tumor-bearing athymic nude mice were sacrificed and the weights of the tumors were recorded. The tumor tissue, liver as well as lung tissues of mice were paraffin-embedded. The tumor paraffin sections were incubated for 10 minutes with 3% H2O2 deionized water to eliminate the endogenous peroxidase activity, washed in PBS three times for five minutes, 5% goat serum was added for 15 minutes, then incubated with mouse monoclonal CD105 antibody (Abcam, Cambridge, UK) at 4°C overnight and washed with PBS three times for five minutes. The biotin-labeled goat anti-mouse IgG were incubated with sections at 37°C for 15 minutes, and then the sections were washed by PBS three times for five minutes. Horseradish peroxidase-avidin enzyme working solution was added at 37°C for 15 minutes and washed with PBS. DAB was added to develop the color, and the nuclei were counterstained mildly with hematoxylin. The liver and lung paraffin sections were stained with hemaetoxylin and eosin (HE) and were independently evluated by two pathologists.

Row | Molecule | IC50 (peptide concentration that induces 50% inhibition of cell growth) (HUVEC) | IC50 (peptide concentration that induces 50% inhibition of cell growth) (HFF) | concentration with significant cytotoxicity (MCF-7 cells [1]) | IC50 (peptide concentration that induces 50% inhibition of cell growth) (MCF-7 cells [1]; MCF-7, MTT, 24 h) | concentration with significant cytotoxicity (MDA-MB-231 cells [2]) | IC50 (peptide concentration that induces 50% inhibition of cell growth) (MDA-MB-231 cells [2]; MDA-MB-231, MTT, 24 h) | apoptosis rate (%) in liver (lung and liver) | apoptosis rate (%) in lung (lung and liver) | formation of DNA nucleosome ladder (MCF-7 cells [3]) | formation of DNA nucleosome ladder (MDA-MB-231 cells [4]) | cells in S phase (MCF-7 cells [5]) | cells in S phase (MDA-MB-231 cells [6]) | tumor volume compared with control group (MDA-MB-231 xenograft [7]) | inhibition of angiogenesis (microvessel density, anti-CD105) (MDA-MB-231 xenograft [8])
1 | CC[C@H](C)[C@H](NC(=O)[C@H](CC(C)C)NC(=O)[C@H](CC(C)C)NC(=O)[C@@H]1CSSC[C@H](N)C(=O)N[C@H](C(=O)O)CC(=O)NCC(=O)N[C@@H](CCCNC(=N)N)C(=O)N1)C(=O)N[C@H](C(=O)N[C@@H](CCCCN)C(=O)N[C@@H](CC(C)C)C(=O)N[C@@H](C)C(=O)N[C@@H](CCCCN)C(=O)N[C@@H](CC(C)C)C(=O)N[C@@H](C)C(=O)N[C@@H](CCCCN)C(=O)N[C@@H](CCCCN)C(=O)N[C@@H](CC(C)C)C(=O)N[C@@H](C)C(=O)N[C@@H](CCCCN)C(=O)N[C@@H](CC(C)C)C(=O)N[C@@H](C)C(=O)N[C@@H](CCCCN)C(=O)O)[C@@H](C)CC [CDAK] (H-C[βAsp]GRCLLIIKLAKLAKKLAKLAK-OH; disulfide 1-5) | 861 µg/mL | 912 µg/mL | > 40000 ng/mL | 190 µg/mL | > 40000 ng/mL | 212 µg/mL | 0.38%±0.14 | 0.16±0.02% |  |  |  |  |  | 
2 | CRDGCALKAIAKLKLKKLILALK [CRLK] |  |  |  |  |  |  | 0.35%±0.23 | 0.17±0.01% | no DNA ladder was detected | no DNA ladder was detected | 19.7% | 23.3% | did not reach a statistically significance | not
